Tests used:
receptor tyrosine kinase = target: T1, receptor tyrosine kinase (Homo sapiens, UniProt P00533); assay: in vitro inhibition of the enzyme receptor tyrosine kinase (Test (a)); assay type: biochemical; conditions: enzyme from A-431 cells, EGF stimulated
T1 construct: Receptor tyrosine kinase was obtained in partially purified form from A-431 cells; endogenous in cells; host or cells: A-431 cells (human vulval carcinoma), Triton X-100 solubilised membrane extract
Method: (a) An in vitro assay which determines the ability of a test compound to inhibit the enzyme receptor tyrosine kinase. Receptor tyrosine kinase was obtained in partially purified form from A-431 cells (derived from human vulval carcinoma) by procedures related to those described by Carpenter et. al., J. Biol. Chem., 1979, 254, 4884, Cohen et al., J. Biol. Chem., 1982, 257, 1523 and by Braun et al., J. Biol. Chem., 1984, 259, 2051.
A-431 cells were grown to confluence using Dulbecco's modified Eagle's medium (DMEM) containing 5% fetal calf serum (FCS). The obtained cells were homogenised in a hypotonic borate/EDTA buffer at pH 10.1. The homogenate was centrifuged at 400 g for 10 minutes at 0°-4° C. The supernatant was centrifuged at 25,000 g for 30 minutes at 0°-4° C. The pelleted material was suspended in 30 mM Hepes buffer at pH 7.4 containing 5% glycerol, 4 mM benzamidine and 1% Triton X-100, stirred for 1 hour at 0°-4° C., and recentrifuged at 100,000 g for 1 hour at 0°-4° C. The supernatant, containing solubilised receptor tyrosine kinase, was stored in liquid nitrogen.
For test purposes 40 μl of the enzyme solution so obtained was added to a mixture of 400 μl of a mixture of 150 mM Hepes buffer at pH 7.4, 500 μM sodium orthovanadate, 0.1% Triton X-100, 10% glycerol, 200 μl water, 80 μl of 25 mM DTT and 80μl of a mixture of 12.5 mM manganese chloride, 125 mM magnesium chloride and distilled water. There was thus obtained the test enzyme solution. […]
The test compound/EGF mixture solution (5 μl) was added to the test enzyme solution (10 μl) and the mixture was incubated at 0°-4° C. for 30 minutes. […] Radioactivity present in the filter paper was measured using a liquid scintillation counter (Sequence A). […]
Receptor tyrosine kinase inhibition was calculated as follows: [formula]
The extent of inhibition was then determined at a range of concentrations of test compound to give an IC50 value.

[1] = system: human naso-pharyngeal cancer cell line KB; assay: in vitro inhibition of the growth of the human naso-pharyngeal cancer cell line KB (Test (b)); assay type: cell-based; conditions: 72 h, KB cells, EGF (10 ng/ml), 3 days, MTT
Method: (b) An in vitro assay which determines the ability of a test compound to inhibit the growth of the human naso-pharyngeal cancer cell line KB.
KB cells were seeded into wells at a density of 1×10^4 -1.5×10^4 cells per well and grown for 24 hours in DMEM supplemented with 5% FCS (charcoal-stripped). Cell growth was determined after incubation for 3 days by the extent of metabolism of MTT tetrazolium dye to furnish a bluish colour. Cell growth was then determined in the presence of EGF (10 ng/ml) or in the presence of EGF (10 ng/ml) and a test compound at a range of concentrations. An IC50 value could then be calculated.

liver hepatocyte growth = assay: in vivo inhibition of TGFα-stimulated liver hepatocyte growth in male rats (Test (c)); conditions: Rattus norvegicus, po
Method: (c) An in vivo assay in a group of male rats which determines the ability of a test compound (usually administered orally as a ball-milled suspension in 0.5% polysorbate) to inhibit the stimulation of liver hepatocyte growth caused by the administration of the growth factor TGFα (400 μg/kg subcutaneously, usually dosed twice, 3 and 7 hours respectively after the administration of the test compound).
In a control group of rats, the administration of TGFα causes on average a 5-fold stimulation of liver hepatocyte growth.
Cell-growth in the control and test animals is determined as follows:
On the morning of the day after the dosing of the test compound (or 0.5% polysorbate in the control group), the animals are dosed with bromodeoxyuridine (BrdU; 100 mg/kg intraperitoneally). The animals are killed four hours later and the livers are excised.
Further tests were carried out using a range of doses of the test compounds to allow the calculation of an approximate ED50 value for the inhibition of liver hepatocyte proliferation as determined by inhibition of the uptake of BrdU.

[2] = system: human mammary carcinoma which expresses epidermal growth factor (EGF) receptor tyrosine kinase; conditions: athymic nude mice; Toi et al., 1990; cited from earlier work
[3] = system: another carcinoma which does not express EGF receptor tyrosine kinase; conditions: Toi et al., 1990; cited from earlier work

T1 sequence (P00533 25-1210): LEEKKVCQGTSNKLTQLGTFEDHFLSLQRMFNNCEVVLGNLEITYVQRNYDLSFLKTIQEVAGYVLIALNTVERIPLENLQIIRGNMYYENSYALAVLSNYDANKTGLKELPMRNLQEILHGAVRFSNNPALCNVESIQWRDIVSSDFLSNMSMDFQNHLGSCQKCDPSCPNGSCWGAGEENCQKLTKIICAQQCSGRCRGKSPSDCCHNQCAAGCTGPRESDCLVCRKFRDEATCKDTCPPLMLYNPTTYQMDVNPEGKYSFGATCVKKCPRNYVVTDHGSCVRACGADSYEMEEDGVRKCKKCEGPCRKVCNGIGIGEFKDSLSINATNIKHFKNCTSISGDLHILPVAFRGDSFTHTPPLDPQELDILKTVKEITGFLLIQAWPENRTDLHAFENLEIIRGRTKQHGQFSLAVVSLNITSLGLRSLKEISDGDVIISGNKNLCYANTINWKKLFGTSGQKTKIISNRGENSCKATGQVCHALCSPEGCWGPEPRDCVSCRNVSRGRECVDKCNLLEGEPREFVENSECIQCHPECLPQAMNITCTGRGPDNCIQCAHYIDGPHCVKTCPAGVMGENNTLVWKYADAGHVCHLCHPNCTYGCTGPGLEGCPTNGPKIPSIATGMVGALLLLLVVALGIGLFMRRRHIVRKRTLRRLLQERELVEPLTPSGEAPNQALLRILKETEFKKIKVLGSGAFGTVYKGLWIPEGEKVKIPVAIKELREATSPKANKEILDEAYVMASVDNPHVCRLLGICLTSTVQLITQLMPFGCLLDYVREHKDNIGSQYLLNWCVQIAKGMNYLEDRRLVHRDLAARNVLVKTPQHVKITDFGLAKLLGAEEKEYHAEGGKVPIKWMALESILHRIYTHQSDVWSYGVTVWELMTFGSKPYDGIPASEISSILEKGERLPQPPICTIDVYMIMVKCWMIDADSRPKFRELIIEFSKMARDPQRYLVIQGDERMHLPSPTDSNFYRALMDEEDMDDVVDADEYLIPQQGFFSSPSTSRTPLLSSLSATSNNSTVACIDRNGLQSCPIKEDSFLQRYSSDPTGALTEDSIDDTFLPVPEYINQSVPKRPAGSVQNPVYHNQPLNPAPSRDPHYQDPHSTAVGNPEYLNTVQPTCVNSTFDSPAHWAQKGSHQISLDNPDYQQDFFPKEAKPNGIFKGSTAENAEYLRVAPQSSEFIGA
T1 sequence (P01133 971-1023 partner limits assumed): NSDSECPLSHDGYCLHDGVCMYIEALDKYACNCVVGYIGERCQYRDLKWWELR

Row | IC50 (receptor tyrosine kinase) [nM] | IC50 [1] [nM] | Compound | ED50 (liver hepatocyte growth) [mg/kg] | growth of transplanted human mammary carcinoma expressing EGF receptor tyrosine kinase [2] | growth of another carcinoma which does not express EGF receptor tyrosine kinase [3]
1 | 70 | 530 | COc1cc2c(Nc3ccc(F)c(Cl)c3)ncnc2cc1F [4-(3'-chloro-4'-fluoroanilino)-7-fluoro-6-methoxyquinazoline] | < 12.5 | – | –
2 | 10 | 20 | Cc1cccc(Nc2ncnc3cc(F)c(NC(=O)CCl)cc23)c1 [6-(2-chloroacetamido)-7-fluoro-4-(3'-methylanilino)quinazoline] | – | – | –
3 | 75 | 680 | Cc1cccc(Nc2ncnc3cc(F)c(N)cc23)c1 [6-amino-7-fluoro-4-(3'-methylanilino)quinazoline] | < 40 | – | –
4 | – | – | O=CN/C=C/c1cc(O)ccc1O [erbstatin] | – | specifically attenuates the growth | without effect on the growth

— US5475001A, “Quinazoline derivatives” (Zeneca Limited, priority 1993, dated 1995)
